# Experimental data from ChEMBL document CHEMBL1139244, “Synthesis and antifungal activity of 1H-pyrrolo[3,2-g]quinoline-4,9-diones and 4,9-dioxo-4,9-dihydro-1H-benzo[f]indoles” (2009).
# Experiments:
# Assay type in all cases: functional
# Pichia kudriavzevii = assay: Antifungal activity against Candida krusei KCCM 11655 after 1 day; conditions: KCCM 11655, 24 h
# Aspergillus niger = assay: Antifungal activity against Aspergillus niger KCTC 1231 after 2 days; conditions: KCTC 1231, 48 h
# Cryptococcus neoformans = assay: Antifungal activity against Cryptococcus neoformans KCCM 50564 after 1 day; conditions: KCCM 50564, 24 h
# Candida albicans = assay: Antifungal activity against Candida albicans KCCM 50235 after 1 day; conditions: KCCM 50235, 24 h
# Candida tropicalis = assay: Antifungal activity against Candida tropicalis KCCM 50662 after 1 day; conditions: KCCM 50662, 24 h
Structure (SMILES),MIC (Pichia kudriavzevii),MIC (Aspergillus niger),MIC (Cryptococcus neoformans),MIC (Candida albicans),MIC (Candida tropicalis)
Cn1c(N)c(C#N)c2c1C(=O)c1ccccc1C2=O,12.5 µg/mL,25 µg/mL,12.5 µg/mL,12.5 µg/mL,6.3 µg/mL
Nc1ccc(O)c2ncccc12,100 µg/mL,> 100 µg/mL,100 µg/mL,> 100 µg/mL,> 100 µg/mL
CCOC(=O)c1c2c(n(-c3ccc(C)cc3)c1N)C(=O)c1ncccc1C2=O,12.5 µg/mL,25 µg/mL,12.5 µg/mL,> 100 µg/mL,3.2 µg/mL
COC(=O)c1c2c(n(-c3ccc(OC)cc3)c1N)C(=O)c1ncccc1C2=O,12.5 µg/mL,50 µg/mL,> 100 µg/mL,> 100 µg/mL,> 100 µg/mL
COC(=O)c1c2c(n(-c3ccccc3)c1N)C(=O)c1ncccc1C2=O,50 µg/mL,50 µg/mL,> 100 µg/mL,> 100 µg/mL,> 100 µg/mL
CCOC(=O)c1c2c(n(-c3ccc(OC)cc3)c1N)C(=O)c1ncccc1C2=O,> 100 µg/mL,25 µg/mL,50 µg/mL,> 100 µg/mL,12.5 µg/mL
COC(=O)c1c2c(n(-c3ccc(C)cc3)c1N)C(=O)c1ncccc1C2=O,12.5 µg/mL,> 100 µg/mL,12.5 µg/mL,100 µg/mL,100 µg/mL
CCOC(=O)c1c2c(n(-c3ccc(F)c(F)c3)c1N)C(=O)c1ncccc1C2=O,25 µg/mL,25 µg/mL,50 µg/mL,1.6 µg/mL,50 µg/mL
CCOC(=O)c1c2c(n(-c3ccc(Cl)cc3)c1N)C(=O)c1ncccc1C2=O,> 100 µg/mL,6.3 µg/mL,50 µg/mL,> 100 µg/mL,3.2 µg/mL
CCOC(=O)c1c2c(n(-c3ccc(Br)cc3)c1N)C(=O)c1ncccc1C2=O,> 100 µg/mL,50 µg/mL,25 µg/mL,50 µg/mL,3.2 µg/mL
CCOC(=O)c1c2c(n(-c3ccc(C(F)(F)F)cc3)c1N)C(=O)c1ncccc1C2=O,6.3 µg/mL,12.5 µg/mL,12.5 µg/mL,6.3 µg/mL,0.8 µg/mL
CCOC(=O)c1c2c(n(-c3ccc(F)cc3)c1N)C(=O)c1ncccc1C2=O,> 100 µg/mL,50 µg/mL,25 µg/mL,> 100 µg/mL,6.3 µg/mL
CCn1c(N)c(C#N)c2c1C(=O)c1ccccc1C2=O,12.5 µg/mL,25 µg/mL,12.5 µg/mL,25 µg/mL,25 µg/mL
Cc1ccc(-n2c(N)c(C#N)c3c2C(=O)c2ccccc2C3=O)cc1,3.2 µg/mL,> 100 µg/mL,100 µg/mL,> 100 µg/mL,> 100 µg/mL
N#Cc1c2c(n(-c3ccccc3)c1N)C(=O)c1ccccc1C2=O,3.2 µg/mL,> 100 µg/mL,100 µg/mL,100 µg/mL,100 µg/mL
CCOC(=O)c1c2c(n(-c3ccc(O)cc3)c1N)C(=O)c1ncccc1C2=O,12.5 µg/mL,25 µg/mL,12.5 µg/mL,3.2 µg/mL,0.6 µg/mL
CCOC(=O)c1c2c(n(-c3ccccc3)c1N)C(=O)c1ncccc1C2=O,> 100 µg/mL,50 µg/mL,50 µg/mL,> 100 µg/mL,6.3 µg/mL
CCOC(=O)c1c2c(n(-c3ccc(I)cc3)c1N)C(=O)c1ncccc1C2=O,25 µg/mL,12.5 µg/mL,25 µg/mL,25 µg/mL,3.2 µg/mL
OC(Cn1cncn1)(Cn1cncn1)c1ccc(F)cc1F [FLUCONAZOLE],25 µg/mL,50 µg/mL,50 µg/mL,12.5 µg/mL,6.3 µg/mL
Nc1nc(=O)[nH]cc1F [FLUCYTOSINE],6.3 µg/mL,50 µg/mL,12.5 µg/mL,6.3 µg/mL,12.5 µg/mL
